{"source": "patent US4474748A", "about": "“Medicaments potentiated with phenyl alkanols” (priority 1981, dated 1984)", "key": {"P. aeruginosa": {"tested_on": "P. aeruginosa", "assay": "Bactericidal (killing) efficacy in the presence of citrated human blood, P. aeruginosa", "assay_type": "cell-based", "conditions": "Table I, 40% ethanol", "protocol": "(§1) A series of the following four solutions was prepared in accordance with the foregoing procedure: […]"}, "C. acnes": {"tested_on": "C. acnes", "assay": "Bactericidal (killing) efficacy in the presence of citrated human blood, C. acnes", "assay_type": "cell-based", "conditions": "Table II", "source_text": "In a similar manner, additional antimicrobial compositions of this invention have been tested and a summary of the test results appears in Table II."}, "Staphylococcus aureus": {"tested_on": "Staphylococcus aureus", "assay": "Topical staphylococcal infection in rats", "assay_type": "in vivo, Staphylococcus aureus in rats", "conditions": "for Abscess formation (share of animals): topical staphylococcal infection", "source_text": "In tests and operative techniques carried out according to the procedure set forth in F. Goldschmidt, Reproducible Topical Staphylococcal Infection in Rats, Applied Microbiology, 23, No. 1, p."}, "S. aureus": {"tested_on": "S. aureus", "assay": "Bactericidal (killing) efficacy in the presence of citrated human blood, S. aureus", "assay_type": "cell-based", "conditions": "Table II", "protocol": "as §1"}, "C. albicans": {"tested_on": "C. albicans", "assay": "Killing efficacy in the presence of citrated human blood, C. albicans", "assay_type": "cell-based", "protocol": "as §1"}, "[1]": {"conditions": "stratum corneum; previous studies; cited from earlier work"}, "intact human skin": {"tested_on": "intact human skin", "conditions": "alcohol potentiators 10%", "protocol": "To illustrate the enhanced penetration of the topical compositions of the invention, the following formulation was employed to prepare compositions which were then tested in a standardized skin blanching test wherein the degree of blanching corresponds to the degree of penetration."}, "[2]": {"conditions": "preparation containing 20% benzocaine; intact skin; cited from earlier work"}}, "note": "Where two headings read alike, the source gives them in different places."}
{"smiles": "CCCC(C)C(C)(C)O", "note": "(stereo not drawn) [2,3-Dimethyl-2-hexanol, 2,3-dimethyl-2-hexanol]", "values": [{"measurement": "Number of Cells Survived", "setting": "P. aeruginosa; contact time 1 minute", "result": "8.5 × 10^6 cells"}, {"measurement": "Number of Cells Survived", "setting": "P. aeruginosa; contact time 10 minutes", "result": "7.6 × 10^6 cells"}, {"measurement": "Number of Cells Survived", "setting": "P. aeruginosa; contact time 30 minutes", "result": "5.1 × 10^6 cells"}]}
{"smiles": "COC1=CC(=O)C[C@@H](C)[C@]12Oc1c(Cl)c(OC)cc(OC)c1C2=O", "note": "[Griseofulvin]", "values": [{"measurement": "Number of Cells Survived", "setting": "C. acnes; 0.0125%, 1 minute", "result": "94 × 10^5 cells"}, {"measurement": "Number of Cells Survived", "setting": "C. acnes; 0.0125%, 10 minutes", "result": "99 × 10^5 cells"}, {"measurement": "Number of Cells Survived", "setting": "C. acnes; 0.0125%, 30 minutes", "result": "92 × 10^5 cells"}]}
{"smiles": "CCC(O)C1CCCCC1", "note": "(stereo not drawn) [1-Cyclohexyl-1-propanol, 1-cyclohexyl-1-propanol]", "values": [{"measurement": "Recoverable Staphylococcus aureus", "setting": "Staphylococcus aureus; 3.0%, alone, rats", "result": "≥ 10^6 cells per gram of excised body wall"}, {"measurement": "Abscess formation (share of animals)", "setting": "Staphylococcus aureus; rats", "result": 100, "unit": "%"}]}
{"smiles": "O=C(Nc1ccc(Br)cc1)c1cc(Br)cc(Br)c1O", "note": "[Temasept IV, 3,4',5tribromosalicylanilide]", "values": [{"measurement": "Number of Cells Survived", "setting": "S. aureus; 0.05%, 1 minute", "result": "4.2 × 10^8 cells"}, {"measurement": "Number of Cells Survived", "setting": "S. aureus; 0.05%, 10 minutes", "result": "4.0 × 10^8 cells"}, {"measurement": "Number of Cells Survived", "setting": "S. aureus; 0.05%, 30 minutes", "result": "1.2 × 10^8 cells"}]}
{"smiles": "O=C(Nc1ccc(Cl)cc1)Nc1ccc(Cl)c(Cl)c1", "note": "[3,4,4'-Chlorocarbanilide]", "values": [{"measurement": "Number of Cells Survived", "setting": "S. aureus; 0.05%, 1 minute", "result": "6.1 × 10^7 cells"}, {"measurement": "Number of Cells Survived", "setting": "S. aureus; 0.05%, 10 minutes", "result": "5.2 × 10^7 cells"}, {"measurement": "Number of Cells Survived", "setting": "S. aureus; 0.05%, 30 minutes", "result": "3.0 × 10^7 cells"}]}
{"smiles": "CN(C)C1C(=O)C(C(N)=O)=C(O)C2(O)C(=O)C3=C(O)c4c(O)cccc4C(C)(O)C3CC12", "note": "(stereo not drawn) [Tetracycline]", "values": [{"measurement": "Number of Cells Survived", "setting": "C. albicans; Table II, 0.05%, 1 minute", "result": "4.3 × 10^7 cells"}, {"measurement": "Number of Cells Survived", "setting": "C. albicans; Table II, 0.05%, 10 minutes", "result": "3.9 × 10^7 cells"}, {"measurement": "Number of Cells Survived", "setting": "C. albicans; Table II, 0.05%, 30 minutes", "result": "3.6 × 10^7 cells"}, {"measurement": "Number of Cells Survived", "setting": "S. aureus; 0.05%, 1 minute", "result": "4.2 × 10^8 cells"}, {"measurement": "Number of Cells Survived", "setting": "S. aureus; 0.05%, 10 minutes", "result": "4.1 × 10^8 cells"}, {"measurement": "Number of Cells Survived", "setting": "S. aureus; 0.05%, 30 minutes", "result": "3.8 × 10^7 cells"}]}
{"smiles": "N[C@@H]1CON=C1O", "note": "[Cycloserine]", "values": [{"measurement": "Number of Cells Survived", "setting": "S. aureus; 0.0125%, 1 minute", "result": "60 × 10^7 cells"}, {"measurement": "Number of Cells Survived", "setting": "S. aureus; 0.0125%, 10 minutes", "result": "60 × 10^7 cells"}, {"measurement": "Number of Cells Survived", "setting": "S. aureus; 0.0125%, 30 minutes", "result": "60 × 10^7 cells"}]}
{"smiles": "C[S+](C)[O-]", "note": "[dimethylsulfoxide (DMSO), dimethylsulfoxide]", "values": [{"measurement": "Absorption of topically applied drugs", "setting": "[1]", "result": "can enhance the absorption of topically applied drugs through the stratum corneum"}]}
{"smiles": "CNC[C@H](O)c1ccc(O)c(O)c1", "note": "[Epinephrine (E)]", "values": [{"measurement": "Skin blanching score (penetration of epinephrine)", "setting": "intact human skin; 10 min after application", "result": 0}, {"measurement": "Skin blanching score (penetration of epinephrine)", "setting": "intact human skin; 20 min after application", "result": "0-1"}, {"measurement": "Skin blanching score (penetration of epinephrine)", "setting": "intact human skin; 30 min after application", "result": 0}, {"measurement": "Skin blanching score (penetration of epinephrine)", "setting": "intact human skin; 40 min after application", "result": 0}, {"measurement": "Skin blanching score (penetration of epinephrine)", "setting": "intact human skin; 50 min after application", "result": 0}, {"measurement": "Skin blanching score (penetration of epinephrine)", "setting": "intact human skin; 60 min after application", "result": 0}]}
{"smiles": "O=c1[nH]c(=O)n([C@H]2C[C@H](O)[C@@H](CO)O2)cc1I", "note": "[5-iodo-2-deoxyuridine]", "values": [{"measurement": "Number of Cells Survived", "setting": "S. aureus; 0.2%, 1 minute", "result": "30 × 10^7 cells"}, {"measurement": "Number of Cells Survived", "setting": "S. aureus; 0.2%, 10 minutes", "result": "30 × 10^7 cells"}, {"measurement": "Number of Cells Survived", "setting": "S. aureus; 0.2%, 30 minutes", "result": "30 × 10^7 cells"}]}
{"smiles": "[O-][n+]1ccccc1[S-].[O-][n+]1ccccc1[S-].[Zn+2]", "note": "[Zn--omadine]", "values": [{"measurement": "Number of Cells Survived", "setting": "C. albicans; Table I, contact time 1 minute, human blood, 40% ethanol", "result": "9 × 10^8 cells"}, {"measurement": "Number of Cells Survived", "setting": "C. albicans; Table I, contact time 10 minutes, human blood, 40% ethanol", "result": "8.0 × 10^8 cells"}, {"measurement": "Number of Cells Survived", "setting": "C. albicans; Table I, contact time 30 minutes, human blood, 40% ethanol", "result": "7 × 10^8 cells"}]}
{"smiles": "CCCCCCCCCCCCC[N+](C)(C)Cc1ccccc1", "note": "[Benzalkonium chloride]", "values": [{"measurement": "Number of Cells Survived", "setting": "S. aureus; 0.05%, 1 minute", "result": "9.0 × 10^5 cells"}, {"measurement": "Number of Cells Survived", "setting": "S. aureus; 0.05%, 10 minutes", "result": "1.0 × 10^5 cells"}, {"measurement": "Number of Cells Survived", "setting": "S. aureus; 0.05%, 30 minutes", "result": "2.9 × 10^3 cells"}]}
{"smiles": "OCCC1CCCCC1", "note": "[2-Cyclohexylethanol, 2-cyclohexylethanol]", "values": [{"measurement": "Number of Cells Survived", "setting": "P. aeruginosa; contact time 1 minute", "result": "1.1 × 10^6 cells"}, {"measurement": "Number of Cells Survived", "setting": "P. aeruginosa; contact time 10 minutes", "result": "7.8 × 10^4 cells"}, {"measurement": "Number of Cells Survived", "setting": "P. aeruginosa; contact time 30 minutes", "result": "4.8 × 10^4 cells"}]}
{"smiles": "CO[C@H]1/C=C/O[C@@]2(C)Oc3c(C)c(O)c4c(O)c(c(/C=N/N5CCN(C)CC5)c(O)c4c3C2=O)NC(=O)/C(C)=C\\C=C\\[C@H](C)[C@H](O)[C@@H](C)[C@@H](O)[C@@H](C)[C@H](OC(C)=O)[C@@H]1C", "note": "[Rifampicin]", "values": [{"measurement": "Number of Cells Survived", "setting": "C. acnes; 0.0125%, 1 minute", "result": "17 × 10^6 cells"}, {"measurement": "Number of Cells Survived", "setting": "C. acnes; 0.0125%, 10 minutes", "result": "17 × 10^6 cells"}, {"measurement": "Number of Cells Survived", "setting": "C. acnes; 0.0125%, 30 minutes", "result": "13 × 10^6 cells"}]}
{"smiles": "CCCCCCCCCCCC[N+](C)(C)CCOc1ccccc1", "note": "[Domiphen bromide]", "values": [{"measurement": "Animals from which S. aureus could be recovered", "setting": "Staphylococcus aureus; 10^5 or more cells per gram of excised body wall", "result": 82.3, "unit": "%"}, {"measurement": "Abscess formation (share of animals)", "setting": "Staphylococcus aureus; rats", "result": 82.3, "unit": "%"}]}
{"smiles": "Cc1cc(N)c2ccccc2[n+]1CCCCCCCCCC[n+]1c(C)cc(N)c2ccccc21", "note": "[Dequalinium chloride]", "values": [{"measurement": "Number of Cells Survived", "setting": "C. acnes; 0.00125%, 1 minute", "result": "26 × 10^5 cells"}, {"measurement": "Number of Cells Survived", "setting": "C. acnes; 0.00125%, 10 minutes", "result": "14 × 10^2 cells"}, {"measurement": "Number of Cells Survived", "setting": "C. acnes; 0.00125%, 30 minutes", "result": 30, "unit": "cells"}]}
{"smiles": "CCOC(=O)c1ccc(N)cc1", "note": "[benzocaine]", "values": [{"measurement": "Surface anesthesia", "setting": "[2]", "result": "effective to cause surface anesthesia"}]}
{"smiles": "CC[C@H]1OC(=O)[C@H](C)[C@@H](O[C@H]2C[C@@](C)(OC)[C@@H](O)[C@H](C)O2)[C@H](C)[C@@H](O[C@@H]2O[C@H](C)C[C@H](N(C)C)[C@H]2O)[C@](C)(O)C[C@@H](C)C(=O)[C@H](C)[C@@H](O)[C@]1(C)O", "note": "[Erythromycin]", "values": [{"measurement": "Number of Cells Survived", "setting": "C. albicans; Table II, 0.025%, 1 minute", "result": "7.2 × 10^8 cells"}, {"measurement": "Number of Cells Survived", "setting": "C. albicans; Table II, 0.025%, 10 minutes", "result": "7.1 × 10^8 cells"}, {"measurement": "Number of Cells Survived", "setting": "C. albicans; Table II, 0.025%, 30 minutes", "result": "9.2 × 10^7 cells"}, {"measurement": "Number of Cells Survived", "setting": "S. aureus; 0.025%, 1 minute", "result": "4.9 × 10^7 cells"}, {"measurement": "Number of Cells Survived", "setting": "S. aureus; 0.025%, 10 minutes", "result": "4.6 × 10^7 cells"}, {"measurement": "Number of Cells Survived", "setting": "S. aureus; 0.025%, 30 minutes", "result": "4.3 × 10^ 7 cells"}, {"measurement": "Number of Cells Survived", "setting": "C. acnes; 0.0125%, 1 minute", "result": "22 × 10^5 cells"}, {"measurement": "Number of Cells Survived", "setting": "C. acnes; 0.0125%, 10 minutes", "result": "21 × 10^5 cells"}, {"measurement": "Number of Cells Survived", "setting": "C. acnes; 0.0125%, 30 minutes", "result": "18 × 10^5 cells"}]}
{"smiles": "N=C(NCCCCCCNC(=N)NC(=N)Nc1ccc(Cl)cc1)NC(=N)Nc1ccc(Cl)cc1", "note": "[Hibitane]", "values": [{"measurement": "Number of Cells Survived", "setting": "C. acnes; 0.0125%, 1 minute", "result": "45 × 10^6 cells"}, {"measurement": "Number of Cells Survived", "setting": "C. acnes; 0.0125%, 10 minutes", "result": "51 × 10^5 cells"}, {"measurement": "Number of Cells Survived", "setting": "C. acnes; 0.0125%, 30 minutes", "result": 0, "unit": "cells"}]}
